Experimental data reported in patent US20100093641A1, “SILK PROTEIN-MIMICKING PEPTIDES AND COMPOSITIONS FOR PREVENTING OR TREATING CRANIAL NEUROPATHIES COMPRISING THE SAME” (BRAINGUARD CO.,LTD., priority 2006, published 2010).
No end group written: not given here.

What was measured:
[1] = system: PD animal models having apoptotic dopaminergic neuronal cells by 6-OHDA; experiment: Amphetamine-induced asymmetric rotation in 6-OHDA Parkinson's disease animal models; assay type: in vivo; details: 6-OHDA mice; SMPs 5 mg/kg intraperitoneally for 2 weeks; FIG. 2
Method: The protection efficacy of the present peptides was tested by behavior experiments using animal models. The mice with damaged dopaminergic neurons by 6-OHDA were administered with amphetamine to induce asymmetric rotation. Then, the present peptides were examined to recover normal states.
5-week old male mice (SAMTAKO, Korea) were used. Four-week old mice were purchased and adapted for one week, followed by establishing animal models using a stereotaxic system (KOFT, CA, USA). In these experiments, 6-OHDA (3 μg/μl in normal saline) was injected into the desired region (0.0 mm posterior to bregma; 2.0 mm lateral to midline; 3.0 mm ventral to the dura) by use of the stereotaxic system, resulting in establishment of animal models. 6-OHDA was injected into substantial nigra in which neurites of dopminergic neurons are connected and sustained death of dopminergic neurons is well induced. Two weeks after 6-OHDA injection, animals were tested for amphetamine-induced turning behavior (amphetamine at 0.1 mg/kg i.p.). The mice were tested for […]. Animals with net rotational asymmetry of at least 400 full turns were selected for test. 5 mg/kg of SMPs were intraperitoneally administered for 2 weeks and their effects were examined by behavior tests. The asymmetric rotation was rapidly relieved with the lapse of time.

dopaminergic neurons = experiment: Dopaminergic neuronal cell death induced by 6-OHDA, methyl green histochemical staining; assay type: in vivo; details: 6-OHDA injected mice; SMPs 5 mg/kg intraperitoneally for 2 weeks; FIG. 1
Method: To analyze neuroprotective effects of the present peptides SMPs, their influence on the death of dopaminergic neurons, a main cause of Parkinson's disease, was tested. 6-OHDA (6-hydroxydopamine) was injected into brain tissues using a stereotaxic system and the death of dopaminergic neurons was observed by histochemcial staining.
5-week old male mice (SAMTAKO, Korea) were used. Four-week old mice were purchased and adapted for one week, followed by inducing the death of neuronal cells using a stereotaxic system (KOFT, CA, USA). In these experiments, 6-OHDA (3 μg/μl in normal saline) was injected into the desired region (0.0 mm posterior to bregma; 2.0 mm lateral to midline; 3.0 mm ventral to the dura) by use of the stereotaxic system, resulting in establishment of animal models. 6-OHDA was injected into substantial nigra in which neurites of dopminergic neurons are connected and sustained death of dopminergic neurons is well induced. After injection of 6-OHDA, 5 mg/kg of SMPs were intraperitoneally administered for 2 weeks. Thereafter, the test mice were fixed using 4% paraformaldehyde. Following the dissection of brain tissues from test mice, they were washed with PBS containing 4% paraformaldehyde for 24 hr and then dehydrated for 4 days using 15%, 20%, 25% and 30% sucrose solutions. The brain tissues were sliced by a freezing microtome. […]

[2] = system: Alzheimer's disease animal models; experiment: Passive avoidance test after amyloid beta injection; assay type: in vivo, rat; details: amyloid beta injected; 5 mg/kg i.p. for 2 weeks; FIG. 4
Method: This experiment was carried out according to the passive avoidance test to examine whether the SMPs prevents the declines in learning and memory abilities by neurotoxic substances. Before performing learning test, the amyloid beta protein was injected into animals through the ventral lateral region using a stereotaxic system, resulting in establishing Alzheimer's disease animal models. 3-day later, 5 mg/kg of SMPs were intraperitoneally administered for 2 weeks. Automated shuttle box (Model PACS-30, Columbus Instruments International Company) was used as test device. The shuttle box was divided into two rooms with the same area (19″ L×9″ W×10.875″ H) by middle door (3″ L×2.625″ W), and their floors were equipped with current-generating device. Each room might be lighted a 20 W light bulb on hinged plexiglass lid. A white rat might enter a dark room through the door. Noise was control below 60 dB and the test was performed in the dark room. The rat was initially placed in a lighted room and moved to a dark room when the door was opened. At this time, the door was automatically closed and light was turned off. […] Two weeks after injection of the amyloid beta protein through the ventral lateral region (8 nmol/ 5 μl in normal saline), the rat was placed in the lighted room, and time required for the rat to move to the dark room was measured. […]

SK-N-SH cells [3] = experiment: Mitochondrial membrane potential by TMRE staining against amyloid beta; assay type: cell-based, human; details: 10 fM for 2 hr, then 20 μM amyloid beta for 6 hr; FIGS. 8a-8c
Source text: We examined the influence of the present peptides on subcellular mitochondria to play a crucial role in cellular energy generation. It have been already reported that the amyloid beta protein induces elevation of reactive oxygen species in cells and simultaneously results in nuclear fragmentation, dysfunction of mitochondrial membrane and loss of mitochondrial functions. In this regard, we examined the influence of the present peptides on mitochondrial functions relating closely to cell viability.
Using a fluorescent staining with TMRE (tetramethyl rhodamine-ethylester, Molecular Probe), the disruption of mitochondrial membrane potential was measured. The positively charged TMRE is penetrated into mitochondrial membrane with help of mitochondrial membrane potential, and the fluorescent intensities indicate the maintenance of mitochondrial membrane potential. SK—N—SH cells (ATCC) were first treated with 10 fM SMPs for 2 hr and then with 20 μM amyloid beta protein for 6 hr. Afterwards, cells were incubated for 15 min at 37° C. with 100 nM TMRE and the fluorescent intensities were measured using a fluoremetry at excitation wavelength of 549 nm and emission wavelength of 574 nm. The fluorescent images were taken using a fluorescence microscope (Olympus IX70) and CCD camera.

SK-N-SH cells [4] = experiment: Nuclear fragmentation by Hoechst 33258 staining against amyloid beta; assay type: cell-based, human; details: 10 fM for 2 hr, then 20 μM amyloid beta for 24 hr; FIG. 6a
Method: The morphological changes of nuclear chromosomes by amyloid beta were observed by staining with DNA-binding fluorochrome bis-benz (Hoechst 33258 dye). SK—N—SH cells were incubated with 10 fM SMPs for 2 hr and then with 20 μM amyloid beta for 24 hr. 0.5-3.0×10^6 cells treated were centrifuged at 300×g for 10 min and washed with PBS, followed by fixation with 50 μl paraformaldehyde for 10 min at room temperature. After washing with PBS, cells were incubated with 16 μg/ml bis-benzimide in PBS (15 μl) for 15 min at room temperature and their 10 μl-aliquot was placed on a slid glass, followed by the observation of apoptotic nuclear chromosome under a fluorescence microscope.

SK-N-SH cells [5] = experiment: Reactive oxygen species by DCF-DA staining against amyloid beta; assay type: cell-based, human; details: 10 fM for 2 hr, then 20 μM amyloid beta; FIG. 7a
Method: For identifying molecular mechanisms governing neuroprotective effects of the present peptides, reactive oxygen species (ROS) known to involve in neurotoxicity of amyloid beta were analyzed. Using a DCF-DA staining method, quantitative determination of reactive oxygen species was performed and microscopic observation was performed.
SK—N—SH cells (ATCC) were first treated with 10 fM SMPs for 2 hr and then with 20 μM amyloid beta protein. Afterwards, cells were incubated for 30 min at 37° C. with 10 μM DCF-DA (6-carboxy-2′,7′-dichloro-dihydrofluoresceine diacetate, dicarboxym-ethylester) dissolved in HCSS buffer solution (20 mM HEPES, 2.3 mM CaCl2, 120 mM NaCl, 10 mM NaOH, 5 mM KC1, 1.6 mM MgCl2, 15 mM glucose) and 2% Pluronic F-127 (suspension additive).

SK-N-SH cells [6] = experiment: MTT reduction cell viability against amyloid beta; assay type: cell-based, human; details: 10 fM for 2 hr before amyloid beta, 48 hr; FIG. 6b
Source text: The survival rate and nuclear fragmentation of neuronal cells indicating apoptosis of neuron were examined to verify the neuroprotective effects of SMPs against neurotoxic effects of the amyloid beta protein. For identifying mechanisms governing the protective effects against amyloid beta in animal tests, neurotoxic effects and nuclear damages in neuronal cell lines were examined. The substance “cosmo” used in this experiment was obtained by a preparation process identical to that for the substance MD.
The MTT reduction analysis was carried out. The human neuroblastoma cells, SK—N—SH cells (ATCC) were plated on PEI-coated 96-well plates at a density of 40,000 cells/well. The cells were cultured in DMEM supplemented with 10% FBS (fetal bovine serum). 2-hr before experiments, the medium was changed with low serum medium (DMEM with 1% FBS) and the cells were incubated with each test substance. […] Formazan precipitates formed by MTT reduction were dissolved in the solution (0.1 N HCl in anhydrous isopropanol), and absorbance at 570 nm was determined by ELISA
Reader. The value of the control group (only containing solvent) was determined as 100% and that of 0.9% Triton X-100-treated group as 0%. The value of each sample was relatively determined with referring the reference values.

SK-N-SH neuronal cells = experiment: Neuronal damage caused by high glucose level; assay type: cell-based, human; details: 35 mM glucose, 3 hr; FIG. 9a
Method: Diabetes characterized by high level of glucose causes events to damage cells and tissues. This experiment is to analyze neuroprotective activities of SMPs on SK—N—SH neuronal cells in high level of glucose (35 mM).

p-Akt = p-Akt level on electrophoresis under high glucose; assay type: cell-based, human; details: 35 mM glucose; FIG. 9b
Method: To identify molecular mechanisms governing neuroprotective activities of the present peptides on apoptosis of neuronal cells caused by high glucose level, p-Akt and p-JNK were analyzed on electrophoresis.

## COc1ccc2[nH]cc(CCNC(C)=O)c2c1 [melatonin]
[1]
  relief of behavior disorders (amphetamine-induced asymmetric rotation): contribute to the relief of behavior disorders
Dopaminergic neurons
  prevention of death of dopaminergic neurons (neurotoxicity of 6-OHDA): effectively prevented
[2]
  decline in learning and memory abilities (passive avoidance): prevent the decline in learning and memory abilities

## GVGAGY [SMP-4, GVGAGY]
SK-N-SH cells [3]
  abnormality of mitochondrial membrane (TMRE fluorescence): little or no abnormality of mitochondrial membrane
SK-N-SH cells [4]
  nuclear fragmentation: greatly decreased
SK-N-SH cells [5]
  effect on reactive oxygen species compared to oligo 1: a little enhanced effects compared to the oligo 1
  levels of reactive oxygen species: decrease in levels of reactive oxygen species at similar extent
SK-N-SH cells [6]
  inhibition of apoptosis of neuronal cells (cell viability, MTT): dramatically inhibit apoptosis of neuronal cells
SK-N-SH neuronal cells
  inhibition of apoptosis caused by high glucose level: effectively inhibits apoptosis

## GAGAGVGY [SMP-1, GAGAGVGY]
SK-N-SH cells [3]
  abnormality of mitochondrial membrane (TMRE fluorescence): little or no abnormality of mitochondrial membrane
SK-N-SH cells [4]
  nuclear fragmentation: greatly decreased
SK-N-SH cells [5]
  levels of reactive oxygen species: decrease in levels of reactive oxygen species at similar extent
p-Akt
  level of p-Akt: highest level of p-Akt
SK-N-SH cells [6]
  inhibition of apoptosis of neuronal cells (cell viability, MTT): dramatically inhibit apoptosis of neuronal cells
SK-N-SH neuronal cells
  inhibition of apoptosis caused by high glucose level: effectively inhibits apoptosis
